Measurements: patent US20050033056A1, “Hydroxylated indole derivatives and uses thereof” (priority 2001, published 2005)

Columns and labels:
major CYP expression = assay: CYP induction in primary hepatocyte cultures (summary statement, major CYPs); format: cell-based, human; details: 72 hour exposure to 10 or 50 μM; primary hepatocyte cultures from three subjects
Experimental: (§1) Upon receiving a primary culture of human hepatocytes in 6-well plates, the culture medium containing streptomycin/penicillin was refreshed (2 ml/well). […] Compound 1 stock solution was added to the culture medium at a 1:400 ratio (v/v). The culture medium and testing compounds were replenished every 24 hours.
At the end of the treatment, the cells were harvested into 1 mL of phosphate-buffered saline (PBS) after washing twice. The cells were precipitated by centrifugation, and were resuspended in PBS (approximately 50 μL). The sample preparation, after mixing with […] of Laemmli buffer (62.5 mM Tris-HCl containing 2% SDS, 25% glycerol, and 0.01% bromophenol, pH 6.8) and being rocked for 2-4 hours, was mixed with 10 μL of 2-mercaptoethanol, and heated at 90° C. for 10 minutes before electrophoresis.
Proteins were resolved in a 12% SDS-PAGE gel using a mini gel apparatus at a constant voltage ([…]) for 70-80 minutes, and transferred onto a polyvinylidene difluoride (PVDF) membrane using a membrane-transferring unit at a constant voltage ([…]) for 60 minutes. The membrane was blocked by 5% non-fat dried milk (NFDM) blotting buffer (PBS containing 0.05% Tween 20) at 4° C. overnight. […] CYP proteins were detected by […] using an X-ray developer.

[1] = tested on: primary culture of human hepatocytes; assay: Morphology of primary human hepatocytes during treatment; format: cell-based; details: cells exposed to Compound 1 compared with control cells
Experimental: as §1

CYP2C19 = CYP2C19 (Homo sapiens, UniProt P33261); assay: CYP inhibition in HLM: S-mephenytoin 4'-hydroxylation; format: in vitro ADME; set-up: tissue Gentest Corp. (Woburn, Mass.); host or cells: pooled human liver microsomes; details: in the presence of Compound 1, concentration-dependent
Experimental: The incubations were carried out in test tubes (12.0×75 mm). The incubation mixtures (250 μL) contained 0.5 mg of HLM protein, 50 (CYP1A2 and CYP2E1) or 25 (CYP2C9, CYP2C19, CYP2D6 and CYP3A4) pmol of recombinant human CYPs, Compound 1 (10 or 50 μM), probe substrate (R—, S-warfarin, chlorzoxazone, S-mephenyloin, or bufuralol) at different concentrations, and 0.5 mg of NADPH in 50 mM Tris buffer containing 15 mM MgCl2 (pH 7.4). Compound 1 was added to the reaction mixture 5 minutes prior to the addition of the probe substrate. […]
The quantification was based on the calibration curves, and the quality control (QC) samples were applied to ensure the quality of the experiments. […]
4. […] MRM was applied for the quantification. […]
Data were acquired and analyzed by ChemStation (Version 6.03, Hewlett Packard, Waldbronn, Germany) for 6-, 7-, and 10-hydroxywarfarin and 6-hydroxychlorzoxazone, and MacQuan (Version 1.6, PE Biosystem, Foster City, Calif.) for 1′-hydroxybufuralol and 4′-hydroxymephenytoin. Quantification was based on peak area ratios of metabolites over the respective IS against the respective concentration of the metabolites. […] The metabolic rates were determined using Excel (Microsoft Office 97, Microsoft Corporation, Redmond, Wash.) or SigmaPlot (Version 6.00, SPSS Inc. Chicago, Ill.). […]

Sequence of CYP2C19 (P33261 whole entry): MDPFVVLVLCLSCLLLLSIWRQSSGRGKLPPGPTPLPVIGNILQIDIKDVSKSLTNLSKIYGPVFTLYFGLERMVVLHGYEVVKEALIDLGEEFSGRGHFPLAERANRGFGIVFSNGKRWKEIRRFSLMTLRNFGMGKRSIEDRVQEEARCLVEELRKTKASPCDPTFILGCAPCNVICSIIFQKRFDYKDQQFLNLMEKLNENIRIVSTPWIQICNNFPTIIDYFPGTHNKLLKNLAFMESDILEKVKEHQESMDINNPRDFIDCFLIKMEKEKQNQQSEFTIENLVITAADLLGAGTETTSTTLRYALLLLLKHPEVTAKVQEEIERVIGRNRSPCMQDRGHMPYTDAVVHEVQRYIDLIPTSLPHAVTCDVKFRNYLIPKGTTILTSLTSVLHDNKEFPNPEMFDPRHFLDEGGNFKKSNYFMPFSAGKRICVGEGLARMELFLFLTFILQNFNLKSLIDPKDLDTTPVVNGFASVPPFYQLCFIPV

CNC(=O)Cc1ccc2ccn(C3CCN(CCc4ccccc4F)CC3)c2c1 [Compound 1, N-methyl-[1-[1-(2-fluorophenethyl)piperidine-4-yl]-1H-indol-6-yl] acetamide]
Induction of major CYP expression (immunochemical detection) (major CYP expression): not detected | morphologic changes of hepatocytes [1]: marked morphologic changes were not observed | effect on CYP2C19-mediated S-mephenyloin 4'-hydroxylation activity (in words) (CYP2C19): significantly reduced
